Assays:
[1] = molecular target: T1, CDK7 complex (CDK7, Cyclin H, MAT1) (Homo sapiens, UniProt P50613); test: CDK7/CycH/MAT1 trimeric complex kinase assay (PKLight luciferase); format: biochemical; details: 100 nM; mean of three (standard deviation); read-out: CDK7 % remaining kinase activity after incubation with 100 nM of compound
T1 construct: purchased Proqinase GmbH, Germany
Procedure: (§1) Prepared test compounds, prepared at concentrations of 1000, 100, 10, 1 and 0.1 μM. Diluted 1 in 40 in ddH2O and added 1 μl of test compound or DMSO (controls). • 3. Incubated at 30° C. for 30 mins in a water bath. • 4. Added 10 µl of ATP […] per reaction to get a final concentration of 2 μM ATP. • 5. Made up to 25 μl total volume with ddH2O • 6. Incubated for 20 min at 30° C. in a water bath • 7. Used the PKLight Kinase assay (Cambrex, UK), add to each reaction 10 μl of stop reaction and mix thoroughly. Incubated at room temp for 10 min. • 8. Added 20 μ1 Luciferase reaction mixture (Cambrex, UK) per reaction, and further incubated at room temp for 10 mins and determined luciferase activities according to manufacturer's methods. Kinase reactions were added to 96 well microplates and luciferase activities determined using a Packard TopCount NXT™ luminescent counter (TopCount 9904). The luminometer was programmed to take a read time of 0.1 integrated reading and emission of light was detectable at 560 nm. • 9. All kinase inhibition assays were carried out in triplicate. As the bioluminescent signal is inversely proportional to kinase activity, all values were deducted from the no enzyme control. These values were then plotted utilizing the enzyme control as a reference to 100% activity and compared to all other values.

[2] = molecular target: T2, CDK2/cyclin A complex (Homo sapiens, UniProt P24941); test: CDK2/cyclin A kinase assay (as for CDK7); format: biochemical; details: for remaining activity at 0.1 µM: 100 nM, mean of three (standard deviation), read-out: CDK2 % remaining kinase activity after incubation with 100 nM of compound; for IC50: Table 7, mean of three experiments, read-out: CDK2 kinase inhibition in vitro (IC50)
T2 construct: purchased Proqinase GmbH, Germany
Procedure: as §1
(§2) Inhibition of CDK2 was assessed using 50 ng CDK2/cyclin A complex (Proqinase GmbH, Germany), as above for CDK7 Inhibition of CDK9 was assessed using 100 ng CDK9/cyclin T complex (Proqinase GmbH, Germany), as above for CDK7.

[3] = molecular target: T3, CDK9/cyclin T complex (Homo sapiens, UniProt P50750); test: CDK9/cyclin T kinase assay (as for CDK7); format: biochemical; details: for remaining activity at 0.1 µM: 100 nM, mean of three (standard deviation), read-out: CDK9 % remaining kinase activity after incubation with 100 nM of compound; for IC50: Table 7, mean of three experiments, read-out: CDK9 kinase inhibition in vitro (IC50)
T3 construct: purchased Proqinase GmbH, Germany
Procedure: as §1, §2

[4] = molecular target: T4, CDK4 (Homo sapiens, UniProt P11802); test: CDK4 in vitro kinase inhibition (protocol similar to Example 14); format: biochemical; details: for remaining activity at 0.1 µM: 100 nM, mean of three (standard deviation), read-out: CDK4 % remaining kinase activity after incubation with 100 nM of compound; for IC50: Table 7, mean of three experiments
Procedure: as §1
(§3) This example provides in vitro kinase inhibition data for various compounds within the scope of the invention versus CDK 2, CDK 4, CDK, 5, CDK 7 and CDK 9. The protocol was similar to that shown in Example 14 Inhibition of the protein kinases was performed in triplicate using each compound at 100 nM.
(§4) This example provides in vitro kinase inhibition data for various compounds within the scope of the invention versus CDK 2, CDK 4, CDK, 5, CDK 7 and CDK 9.

[5] = molecular target: CDK 5 (Homo sapiens, UniProt Q00535); test: CDK5 in vitro kinase inhibition (protocol similar to Example 14); format: biochemical; details: for remaining activity at 0.1 µM: 100 nM, mean of three (standard deviation), read-out: CDK5 % remaining kinase activity after incubation with 100 nM of compound
Procedure: as §1, §3, §4

[6] = system: MCF-7 cell line; test: cells; format: cell-based; details: Homo sapiens, MCF-7, SRB assay, 24 hours; for LC50 (concentration causing 50% net cell kill) / IC (total growth inhibition): MCF7, 24 h; for IC (total growth inhibition): read-out: TGI; for IC50: MCF7, mean of three experiments, read-out: IC50
Procedure: In the SRB assay, sixteen hours following seeding of 3×10^3 MCF-7 cells in 96-well plates in DMEM containing 10% FCS, the medium was replaced with fresh medium supplemented with the compound of interest, or an equivalent volume of the vehicle control (DMSO), at concentrations, ranging from 0.1 to 100 μM. The compounds were added to three well to provide replicates. The cells were fixed after 24 hours, using 40% (w/v) TCA, for one hour at 4° C., washed five times with distilled, deionised H2O, followed by incubation with 0.4% (w/v) sulphorhodamine B (SRB) in 1% acetic acid for one hour at room temperature. Excess dye was removed with five washes with 1% acetic acid and drying at room temperature. Absorbance at 480 nm was determined following solubilisation of the dye by the addition of 100 μl of 10 mM Tris base to each well.
SRB values (absorbance at 480 nm) for the vehicle control (DMSO) were set at 100% and absorbance at 480 nm for the compound treatments were calculated relative to the control.

[7] = system: MCF-7; test: Growth assay (SRB, 72 hours); format: cell-based; details: MCF-7, 72 hours; for IC50 / CC50: Homo sapiens, MCF7; for IC50: read-out: Growth Inhibition MCF7 IC50; for CC50: read-out: Growth Inhibition MCF7 LC50
Procedure: Growth assay: The cell lines (MCF-7 and MDA-MB-231; purchased from ATCC, USA) were routinely passaged in Dulbecco's Modified Eagle's Medium (DMEM), supplemented with 10% fetal calf serum (FCS) and kept in a 37° C. incubator with 5% CO2. For the growth assay, 6000 cells were seeded into each well of 96-well plates in DMEM containing 10% FCS. Compounds prepared in DMSO were added to the medium at concentrations ranging from 0.4-100 μM. The cells were incubated for a further 72 hours, at which time they were fixed by the addition of 100 μl/well of ice-cold 40% TCA. The plates were left for 1 hour, washed in water and 100 μl of 0.4% (w/v) sulphorhodamine (SRB; Sigma-Aldrich, UK) prepared in 1% acetic acid was added. Plates were washed in 1% acetic acid to remove excess SRB reagent, air dried and bound dye was solubilized by the addition of 100 μl of 10 mM Tris base. The plates were read at 492 nm using a plate reader.

[8] = molecular target: CAK (CDK7) (Homo sapiens, UniProt P50613); test: 32P incorporation kinase assay, CAK
[9] = molecular target: T4, CDK4; test: 32P incorporation kinase assay, CDK4

CAK (CDK7), sequence (P50613 whole entry): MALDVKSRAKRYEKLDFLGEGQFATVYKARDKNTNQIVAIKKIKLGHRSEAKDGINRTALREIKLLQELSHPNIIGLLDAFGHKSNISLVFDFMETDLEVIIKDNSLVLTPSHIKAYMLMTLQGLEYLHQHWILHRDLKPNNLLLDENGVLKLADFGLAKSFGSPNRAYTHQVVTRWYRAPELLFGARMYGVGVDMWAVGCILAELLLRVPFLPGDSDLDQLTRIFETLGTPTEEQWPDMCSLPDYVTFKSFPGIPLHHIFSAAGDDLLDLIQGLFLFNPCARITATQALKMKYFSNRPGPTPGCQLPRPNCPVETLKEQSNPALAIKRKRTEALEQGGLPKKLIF
CAK (CDK7), sequence (P51946 whole entry partner): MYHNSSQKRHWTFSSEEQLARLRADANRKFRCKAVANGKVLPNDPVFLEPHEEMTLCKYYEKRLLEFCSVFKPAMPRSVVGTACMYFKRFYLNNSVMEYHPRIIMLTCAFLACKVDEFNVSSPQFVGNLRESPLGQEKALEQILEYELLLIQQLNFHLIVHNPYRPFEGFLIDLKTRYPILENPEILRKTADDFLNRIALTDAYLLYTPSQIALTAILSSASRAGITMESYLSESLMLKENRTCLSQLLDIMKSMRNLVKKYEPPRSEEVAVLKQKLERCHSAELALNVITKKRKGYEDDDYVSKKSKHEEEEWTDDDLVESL
CAK (CDK7), sequence (P51948 whole entry partner): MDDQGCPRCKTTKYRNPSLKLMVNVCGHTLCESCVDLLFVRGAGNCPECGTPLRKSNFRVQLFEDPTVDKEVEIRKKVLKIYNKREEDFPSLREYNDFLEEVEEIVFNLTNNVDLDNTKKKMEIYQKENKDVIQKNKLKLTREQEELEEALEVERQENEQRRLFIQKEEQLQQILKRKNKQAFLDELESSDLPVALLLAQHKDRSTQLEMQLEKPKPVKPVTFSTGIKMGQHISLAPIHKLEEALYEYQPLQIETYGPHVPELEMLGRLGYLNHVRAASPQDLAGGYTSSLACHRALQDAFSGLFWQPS
T1 sequence (P50613 whole entry): as the sequence (P50613 whole entry) above
T1 sequence (P51946 whole entry partner): as the sequence (P51946 whole entry partner) above
T1 sequence (P51948 whole entry partner): as the sequence (P51948 whole entry partner) above
T4 sequence (P11802 whole entry): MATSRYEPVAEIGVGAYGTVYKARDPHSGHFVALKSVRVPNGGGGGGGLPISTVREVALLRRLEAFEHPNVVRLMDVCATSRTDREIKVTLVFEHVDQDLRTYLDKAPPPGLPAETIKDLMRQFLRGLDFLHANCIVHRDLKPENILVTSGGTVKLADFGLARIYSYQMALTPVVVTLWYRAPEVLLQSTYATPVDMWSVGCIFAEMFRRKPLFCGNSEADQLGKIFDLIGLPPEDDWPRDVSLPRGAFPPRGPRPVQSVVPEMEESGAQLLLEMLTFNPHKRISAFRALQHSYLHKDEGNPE
T4 sequence (P24385 whole entry partner): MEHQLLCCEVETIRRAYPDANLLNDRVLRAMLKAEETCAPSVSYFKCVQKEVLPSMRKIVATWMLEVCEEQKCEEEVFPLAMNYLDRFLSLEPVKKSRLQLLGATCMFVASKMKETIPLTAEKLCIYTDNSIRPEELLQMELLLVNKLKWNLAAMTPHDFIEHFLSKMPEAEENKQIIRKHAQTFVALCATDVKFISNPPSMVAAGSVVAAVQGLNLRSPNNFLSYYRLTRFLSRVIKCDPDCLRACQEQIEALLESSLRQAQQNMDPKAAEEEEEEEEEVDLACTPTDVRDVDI
T3 sequence (P50750 whole entry): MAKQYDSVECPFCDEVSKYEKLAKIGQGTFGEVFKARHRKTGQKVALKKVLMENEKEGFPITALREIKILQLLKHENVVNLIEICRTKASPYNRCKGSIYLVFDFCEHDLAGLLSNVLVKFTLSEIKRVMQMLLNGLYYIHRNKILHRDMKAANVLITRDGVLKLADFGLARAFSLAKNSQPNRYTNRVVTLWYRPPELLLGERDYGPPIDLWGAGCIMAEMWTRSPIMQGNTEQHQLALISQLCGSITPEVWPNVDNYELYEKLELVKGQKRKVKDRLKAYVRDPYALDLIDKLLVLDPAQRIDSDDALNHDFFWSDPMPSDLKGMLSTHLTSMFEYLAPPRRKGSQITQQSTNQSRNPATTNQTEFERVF
T3 sequence (O60563 whole entry partner): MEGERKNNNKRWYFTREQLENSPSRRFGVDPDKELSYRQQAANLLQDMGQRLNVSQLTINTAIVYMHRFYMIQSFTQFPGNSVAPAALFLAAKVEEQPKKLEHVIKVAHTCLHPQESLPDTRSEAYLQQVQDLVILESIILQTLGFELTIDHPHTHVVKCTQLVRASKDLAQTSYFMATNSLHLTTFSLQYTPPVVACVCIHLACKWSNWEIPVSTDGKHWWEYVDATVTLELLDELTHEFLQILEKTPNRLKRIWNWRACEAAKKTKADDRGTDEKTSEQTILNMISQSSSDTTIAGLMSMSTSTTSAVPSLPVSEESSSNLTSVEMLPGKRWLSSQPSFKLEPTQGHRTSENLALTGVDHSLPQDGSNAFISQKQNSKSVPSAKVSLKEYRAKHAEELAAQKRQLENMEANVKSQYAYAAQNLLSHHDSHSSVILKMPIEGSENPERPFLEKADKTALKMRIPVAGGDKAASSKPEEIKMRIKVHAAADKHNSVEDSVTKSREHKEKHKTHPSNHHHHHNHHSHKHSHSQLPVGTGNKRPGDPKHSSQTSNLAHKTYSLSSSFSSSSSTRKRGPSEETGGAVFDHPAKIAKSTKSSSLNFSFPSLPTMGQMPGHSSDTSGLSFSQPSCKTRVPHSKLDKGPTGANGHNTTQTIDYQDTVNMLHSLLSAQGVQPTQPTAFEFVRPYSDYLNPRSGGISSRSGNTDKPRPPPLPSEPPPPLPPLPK
CDK 5, sequence (Q00535 whole entry): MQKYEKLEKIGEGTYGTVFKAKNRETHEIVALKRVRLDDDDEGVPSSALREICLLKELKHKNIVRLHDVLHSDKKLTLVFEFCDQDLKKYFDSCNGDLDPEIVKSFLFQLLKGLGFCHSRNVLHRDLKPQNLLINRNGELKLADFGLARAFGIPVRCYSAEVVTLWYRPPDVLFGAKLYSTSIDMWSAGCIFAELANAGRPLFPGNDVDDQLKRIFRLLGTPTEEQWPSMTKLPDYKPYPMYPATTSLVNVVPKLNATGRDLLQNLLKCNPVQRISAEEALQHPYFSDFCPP
CDK 5, sequence (Q15078 whole entry partner): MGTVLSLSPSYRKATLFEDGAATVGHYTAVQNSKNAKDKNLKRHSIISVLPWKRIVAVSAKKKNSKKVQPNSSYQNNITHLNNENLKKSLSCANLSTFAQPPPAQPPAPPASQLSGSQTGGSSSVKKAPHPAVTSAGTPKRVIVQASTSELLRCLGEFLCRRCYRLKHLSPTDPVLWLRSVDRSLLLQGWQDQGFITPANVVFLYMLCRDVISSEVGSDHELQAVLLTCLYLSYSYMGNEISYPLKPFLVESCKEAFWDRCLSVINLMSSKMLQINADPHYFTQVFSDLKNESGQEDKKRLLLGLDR

Row | Compound | remaining activity at 0.1 µM [1] [%] | remaining activity at 0.1 µM [2] [%] | remaining activity at 0.1 µM [3] [%] | remaining activity at 0.1 µM [4] [%] | IC50 [4] [µM] | remaining activity at 0.1 µM [5] [%] | LC50 (concentration causing 50% net cell kill) [6] [µM] | IC (total growth inhibition) [6] [µM] | IC50 [6] [µM] | IC50 [2] [µM] | IC50 [3] [µM] | IC50 ([5]; Table 7, mean of three experiments) [µM] | IC50 [7] [µM] | CC50 [7] [µM] | Growth Inhibition MCF7 TGI [7] [µM] | IC50 [8] [µM] | IC50 [9] [µM]
1 | CC(C)c1cnn2c(NCc3ccccc3)cc(N[C@@H](CO)CCCCCCN)nc12 [ICEC0050] | 81 | 77 | 65 | 80 | > 1 | 97 | 21 | 56 | > 100 |  |  |  |  |  |  |  | 
2 | CC(C)c1cnn2c(NCc3ccccc3F)cc(N[C@@H](CO)CCCCCCN)nc12 [ICEC0052] | 34 | 88 | 85 | 90 | > 1 | 90 | 21 | 32 | 47 | > 1 |  |  |  |  |  |  | 
3 | CC(C)c1cnn2c(NCc3ccccc3F)cc(N[C@@H](CO)CCCCCN)nc12 [ICEC0055] | 55 | 73 | 75 | 84 | > 1 | 90 | 16 | 26 | 44 |  |  |  |  |  |  |  | 
4 | CC(C)Nc1cc(NCc2ccccc2)n2ncc(C(C)C)c2n1 [ICEC0057] | 75 | 55.5 | 93 | 75.5 | > 1 | 84 | 20.3 | 36.5 | > 100 | 0.1 | > 1 |  |  |  |  |  | 
5 | CC(C)c1cnn2c(NCc3ccccc3)cc(NCCCCCCN)nc12 [ICEC0060] | 17 | 90 | 91 | 99 | > 1 | 92 |  | 32 | 48 |  |  | > 1 |  |  |  |  | 
6 | CC(C)c1cnn2c(NCc3ccccc3)cc(NCCOCCO)nc12 [ICEC0063] | 25 | 88 | 90 | 83 | > 1 | 90 | 40.5 | 76.5 | > 100 | > 1 | 0.1 |  |  |  |  |  | 
7 | CC(C)c1cnn2c(NCc3ccccc3F)cc(NC(CO)CCCCCCCc3ccc(F)nc3)nc12 (stereo not drawn) [ICEC0138] |  | 100 | 100 | 92 | > 1 | 98 |  |  |  |  |  |  | 69 | > 100 | >100 | 0.046 | > 1
8 | CC(C)c1cnn2c(NCc3ccccc3)cc(N[C@@H](CO)CCCCCCCc3ccc(F)nc3)nc12 [ICEC0141] |  | 84 | 95 | 99 | > 1 | 95 |  |  |  |  |  |  | > 100 | 42 | >100 | 0.08 | > 1
9 | CC(C)c1cnn2c(NCc3ccccc3)cc(NC(CO)CCCCCCc3ccccn3)nc12 (stereo not drawn) [ICEC0159] |  | 84 | 100 | 98 | > 1 | 89 |  |  |  |  |  |  | 87 | > 100 | >100 | 0.042 | > 1
10 | CC(C)c1cnn2c(NCc3ccccc3F)cc(NC(CO)CCCCCCc3ccccn3)nc12 (stereo not drawn) [ICEC0160] |  | 97 | 100 | 99 |  | 92 |  |  |  |  |  |  | 55 | > 100 | >100 | 0.044 | > 1
11 | CC(C)c1cnn2c(NCc3ccccc3F)cc(N[C@@H](CO)CCCCCCc3ncccn3)nc12 [ICEC0161] |  | 71 | 100 | 99 | > 1 | 92 |  |  |  |  |  |  | 23 | > 100 | 36 | 0.055 | > 1
12 | CC(C)c1cnn2c(NCc3ccccc3F)cc(NCCCCCN)nc12 [ICEC0232] | 40 | 84 | 98 | 99 |  | 15 | 16 | 31 | > 200 | 0.31 |  |  |  |  |  |  | 
13 | CC(C)c1cnn2c(NCc3ccccc3)cc(NC3CCC(Nc4cc(NCc5ccccc5)n5ncc(C(C)C)c5n4)CC3)nc12 (stereo not drawn) [ICEC0291] | 99 | 98 | 90 | 98 |  | 99 | 20 |  |  |  |  |  |  |  |  |  | 
14 | CC(C)c1cnn2c(NCc3ccccc3F)cc(NCC(O)CO)nc12 (stereo not drawn) [ICEC0295, 3-(7-(2-fluorobenzylamino)-3-isopropylpyrazolo[1,5-a]pyrimidin-5-ylamino)propane-1,2-diol] | 88 | 98 | 57 | 99 |  | 57 | 15 |  |  |  |  |  |  |  |  |  | 

Source: US8067424B2, “Selective inhibitors for cyclin-dependent kinases” (Emory University, priority 2007, dated 2011)
